Key:
[1] = test system: water molds (genus Saprolegnia); assay: Experiment 1: water mold culture on hempseed cotyledons, sensitized time 30 min; format: cell-based; conditions: 100 ppm; sensitized 30 min
Experimental: Based on “Testing Methods for City Water (2001 edition) by Japan Water Works Association, VIII Microbial Tests, 4.4.2.2 Water Mold Culture Method”, one hempseed cotyledon with water molds and 300 mL of sterilized tap water were placed in a sterilized 500-mL conical flask, and then 5 sterilized hempseed cotyledons were placed in the conical flask and cultured at ordinary temperature. The water molds (genus Saprolegnia) were collected from a hatchery in a fish farm for salmons and trout. […] The water in fee conical flask was diluted with sterilized tap water to prepare a zoospore suspension containing 10 to 12 zoospores of the water molds per 100 μL. It is to be noted that the tap water used was city water (pH 6.0) in Kobe.
The zoospore suspension was added to a sterilized tube (5 mL capacity) containing 3 hempseed cotyledons and stirred, and was then allowed to stand at room temperature for 3 days. After 3 days, 900 μL of a chemical solution was added to the sterilized tube, and the resulting mixture was stirred and then allowed to stand for 30 minutes for sensitization. […]
Based on the results of the observation, the minimum killing concentration of an active ingredient contained in the chemical solution was determined. […]

[2] = test system: water molds (genus Saprolegnia); assay: Experiment 2: water mold culture on hempseed cotyledons, sensitized time 60 min; format: cell-based

Molecule | Haze [1] | Zoospores [1] | Haze ([2]; 100 ppm, sensitized 60 min) | Zoospores ([2]; 100 ppm, sensitized 60 min) | Haze ([2]; 1200 ppm, sensitized 60 min) | minimum killing concentration ([2]; sensitized time 60 minutes, as chlorine dioxide) [ppm]
O=[N+]([O-])C(Br)(CO)CO [bronopol] | no effect | effective | no effect | effective | could not be prevented | 
sodium chlorite |  |  |  |  |  | 2.5

Reference: US20160278348A1, “METHOD FOR CONTROLLING WATER MOLDS IN AQUACULTURE WATER” (SUKEGAWA CHEMICALS CO., LTD., priority 2014, published 2016)
